Test results reported in patent US10501800B2, “Breast cancer prognosis” (Regents of the University of Minnesota, priority 2012, dated 2019).
“Also recorded” adds a separate entry of the source.

What was measured:
[1] = tested on: PR target genes in T47D cells expressing WT PR, SUMO-deficient PR (KR) or empty vector; assay: Gene expression profiling (Illumina HT-12v4) of T47D cell lines treated with progesterone or antiprogestins; assay type: cell-based, human; conditions: for expression of progesterone-regulated PR target genes: T47D cells expressing SUMO-deficient PR (KR), antiprogestin 10^−7 M alone or plus progesterone 10^−8 M
Protocol: T47D cells stably expressing pIRES-neo3 empty vector, WT or KR PR were serum starved in modified IMEM (Gibco, catalog #A10488) for 1 day, treated with R5020 (10^−8 M) or vehicle control for 6 h before RNA extraction using a RNeasy kit (QIAgen, catalog #74104). Six h of progestin treatment allowed for substantial PR-dependent gene expression as compared to prior studies (Jacobsen et al., 2005; Richer et al., 2002). DNase I treated (QIAgen, catalog #79254) RNA samples from duplicate experiments were prepared for expression analysis using the Illumina HT-12v4 bead chip platform according to manufacture's protocols. Data were analyzed within R software using the Bioconductor (Gentleman et al., 2004) package called lumi where raw intensities were log2 transformed and quantile normalized. Differentially expressed genes were analyzed using the limma package, where empirical Bayes was used to better estimate the variance of the genes. Gene expression data presented contain log2 normalized intensities and biological comparisons presented (e.g. R5020/vehicle) contain log2 fold change with the Benjamini and Hochberg (BH) adjusted P value (Benjamini and Hochberg, 1995). To generate the heat map in FIG. 1C, unsupervised hierarchical clustering of genes was carried out using heatmap. 2 function in the R package gplots. Clustering was performed using Euclidean distance and complete linkage. Rows were scaled to have mean zero and standard deviation equal to one.
Gene expression profiles in T47D cell lines treated with antiprogestins were obtained using identical methods as described above, except for these notable differences. After serum starvation, cells stably expressing empty vector, WT, or KR PR were treated for 6 hours under one of eight possible conditions: (1) ethanol (vehicle control), (2) progesterone (10^−8 M), (3) RU486 (10^−7 M), (4) aglepristone (10^−7 M), (5) onapristone (10^−7 M), (6) RU486 (10^−7 M) plus progesterone (10^−8 M), (7) aglepristone (10^−7 M) plus progesterone (10^−8 M), or (8) onapristone (10^−7 M) plus progesterone (10^−8 M). Gene expression levels were measured, normalized, analyzed, and heat maps were generated using the methods described above.
Raw microarray data from two independent microarray experiments (both performed using the Illumina HT-12v4 platform described above) were combined and normalized together within R software using the Bioconductor (Gentleman et al., 2004) package called lumi where raw intensities were log 2 transformed and quantile normalized.
Sample Sizes & Composition: For the first analysis, two KR cell replicates were used that had been stimulated with R5020 a synthetic progestin in the first experiment and three KR cell replicates that had been stimulated with progesterone in the second experiment. The same was accomplished regarding the corresponding WT cell replicates. Pertaining to the first analysis, therefore, a sample size of n=5 was used for each of the two groups (KR & WT). Regarding the second analysis, we used three KR cell replicates that had been co-treated with progesterone plus onapristone in the second experiment; and we used three WT cell replicates that had been co-treated with progesterone plus onapristone also in the second experiment (n=3 for each of the two groups). Regarding the third analysis, we used three KR cell replicates that had been co-treated with progesterone plus RU486 in the second experiment; and we used three WT cell replicates that had been co-treated with progesterone plus RU486 also in the second experiment (n=3 for each of the two groups). Regarding the fourth analysis, three KR cell replicates was used that had been co-treated with progesterone plus onapristone; and three WT cell replicates were used that had been treated with vehicle control (ethanol) (n=3 for each of the two groups). […]

PR protein expression = assay: Western blotting for PR in doxorubicin-treated T47D cells expressing inducible PR (PARP cleavage assay); assay type: cell-based, human; conditions: doxorubicin 8 uM, 24 h
Protocol: Poly (ADP)-ribose polymerase 1 (PARP) cleavage assays were used to measure the level of apoptosis in cell cultures after treatment with cytotoxic concentrations of doxorubicin. T47D cells expressing inducible PR were plated in 10 cm dishes (2×10^6 cells/dish) in cMEM and induced with AP21967 (10^−9 M). Cells were washed, induced, and serum starved for 4 d. Cells were then treated with R5020 (10^−8M) for 6 h before adding doxorubicin (8 uM) to dishes for 24 h. Protein was harvested using standard RIPA lysis buffer, subjected to SDS-PAGE and western blotting using cleaved-PARP and PR antibodies. Beta-actin western blotting was performed for sample loading controls.

[2] = tested on: MAP1A and RGS2 mRNA in T47D cells stably expressing WT PR; assay: RT-qPCR with epidermal growth factor (EGF) treatment in T47D cells expressing WT PR; assay type: cell-based, human
Protocol: For RT-qPCR assays involving epidermal growth factor (EGF) treatment, cells were plated at 5×10^5 cells/well in 6-well dishes and serum starved for 2 days in modified IMEM. Cells were pre-treated with 100 ng/ml EGF (Sigma, catalog #E9644) before treatment with R5020 (10^−8 M).

[3] = tested on: PR target genes (CHN2, RGS2, ACOT6) in BT-474 human breast cancer cells; assay: RT-qPCR of PR target genes in BT-474 cells, with or without MEK inhibitor; assay type: cell-based
Protocol: For reverse transcription quantitative polymerase chain reaction (RT-qPCR) assays, 5×10^5 cells/well were plated in 6-well dishes, serum starved in modified IMEM for 1 day before treatments (see individual figures). RNA was extracted using TriPure reagent (Roche, catalog #11667157001) and cDNA was created using the Transcriptor cDNA first-strand cDNA synthesis kit (Roche, catalog #04897030001). Relative expression levels were determined by qPCR assays performed on a Roche LightCycler II using SYBR green master-mix (Roche, catalog #04887352001). Target gene quantification levels were normalized to the expression of standard housekeeper genes: TBP, ACTB, and/or GAPDH. For cells expressing inducible PR, the protocol was the same as above, except prior to ligand treatments, the cells were induced with AP21967 (10^−9 M) for 2 d.
For experiments using MEK inhibitors, BT-474 cells were plated in […] dishes at 5×10^5 cells/well. One day later, the cells were washed and serum starved in modified IMEM for 1d. These cells were pre-treated with the MEK inhibitor U0126 (5 uM, EMD Chemicals, catalog #662005) for 30 min R5020 (10^−8 M) and/or RU486 (10^−7 M) was then added to cell culture wells for 6 h before RNA/protein isolation and RT-qPCR/western blotting was performed, as described above.

[4] = tested on: PR Ser294 phosphorylation; assay: Western blotting for PR Ser294 phosphorylation in BT-474 cells; assay type: cell-based, human
Protocol: (§1) T47Dco parental cell lines were characterized previously (Horwitz et al., 1982). T47D cells stably expressing PR were created by molecular cloning of cDNAs encoding either WT, K388R, S294A, or K388R/S294A PR into a pIRES-neo3 expression vector (Clontech, catalog #631621), followed by transfection of vectors into T47D-Y cells (Sartorius et al., 1994) using FuGENE HD (Roche, catalog #04709713001). Single-cell clones were expanded under high G418 selection (500 ug/ml) and maintained in low G418 selection (200 ug/ml) (EMD Chemicals, catalog #345810). These cells were maintained in complete minimal essential medium (cMEM) supplemented with 5% fetal bovine serum (FBS), 1% non-essential amino acids (NEAA), 1% penicillin/streptomycin, 6 ng/ml insulin (CellGro, catalog #10-010-CV). T47D cells expressing inducible PR were described previously (Hagan et al., 2011). Inducible PR expression was achieved by adding AP21967 (10^−9 M, Ariad Pharmaceuticals, Cambridge, Mass.) to cell culture medium for a minimum treatment time of 2 d. MCF-7 cell lines expressing PR were created by transfection of pIRES-neo3 vectors containing cDNA inserts encoding either WT or KR PR into cells using FuGENE HD. Single-cell clones were expanded under high G418 selection and maintained in low G418 selection. […]

[5] = tested on: RGS2 expression in T47D cells expressing WT PR or KR PR; assay: RT-qPCR of PR target genes in T47D cells stably expressing WT or KR PR; assay type: cell-based, human; conditions: R5020 6 h
Protocol: as §1, with “2011).” for “2011). Inducible PR expression was achieved by adding AP21967 (10^−9 M, Ariad Pharmaceuticals, Cambridge, Mass.) to cell culture medium for a minimum treatment time of 2 d. MCF-7 cell lines expressing PR were created by transfection of pIRES-neo3 vectors containing cDNA inserts encoding either WT or KR PR into cells using FuGENE HD. Single-cell clones were expanded under high G418 selection and maintained in low G418 selection.”
For reverse transcription quantitative polymerase chain reaction (RT-qPCR) assays, 5×10^5 cells/well were plated in 6-well dishes, serum starved in modified IMEM for 1 day before treatments (see individual figures). […] Relative expression levels were determined by qPCR assays performed on a Roche LightCycler II using SYBR green master-mix (Roche, catalog #04887352001). Target gene quantification levels were normalized to the expression of standard housekeeper genes: TBP, ACTB, and/or GAPDH. […]

[6] = tested on: T47D cells expressing inducible PR (iWT, iKR); assay: MTT proliferation assay in T47D cells expressing inducible PR; assay type: cell-based, human; conditions: cells expressing iWT or iKR PRs vs un-induced or untreated counterparts; R5020
Protocol: Cell proliferation was measured using MTT assays (3-[4,5-dimethylthiazol-2-yl]-2,5-diphenyltetrazolium bromide, Sigma catalog #M2128). In 24-well plates, 1×10^4 cells/well were plated in cMEM (inducible PR expression was induced with AP21967 (10^−9 M) for 2 days), cells were washed and steroid starved in modified IMEM supplemented with 5% dextran-coated charcoal-treated (DCC) FBS for 1 day before the addition of R5020 (10^−8 M). At days 0, 2, 4, 6, cell proliferation was determined by adding 60 ul MTT (5 mg/ml) to each 0.5 ml cell culture well for 3 hours, medium was carefully removed and solublization solution (90% v/v DMSO/PBS) was added to lyse the cells. Lysate absorbance (650 and 570 nm) was measured using a plate reader. 650 nm measurements were subtracted from 570 nm measurements and sample means were normalized to day zero.

[7] = pre-treatment with U0126 5 uM for 30 min

CN(C)c1ccc([C@H]2C[C@]3(C)[C@@H](CC[C@]3(O)CCCO)[C@@H]3CCC4=CC(=O)CCC4=C32)cc1 [onapristone, (8S,11R,13R,14S,17S)-11-[4-(dimethylamino)phenyl]-17-hydroxy-17-(3-hydroxypropyl)-13-methyl-1,2,6,7,8,11,12,14,15,16-decahydrocyclopenta[a]phenanthren-3-one]
number of the 29 KR>WT genes stimulated by onapristone treatment alone ([1]; KR cells, onapristone alone): none
number of the 29 KR>WT genes stimulated by onapristone plus P4 treatment ([1]; KR cells, onapristone plus P4): 13 genes
number of genes significantly differentially expressed, KR cells (onapristone plus progesterone) vs WT cells (ethanol) ([1]; KR treated with onapristone plus progesterone, WT treated with vehicle control): 5 genes
expression of progesterone-regulated PR target genes ([1]; 6 h): did not cause these PR target genes to be upregulated; also recorded: do not stimulate gene expression
number of genes significantly differentially expressed, WT cells (progesterone plus onapristone) vs WT cells (ethanol) ([1]; WT cells): only one gene
number of genes significantly differentially expressed between KR and WT cells ([1]; both cell lines co-treated with progesterone plus the antiprogestin): 8 genes
significant differential expression of the 15 biomarker genes between KR and WT cells ([1]; both cell lines co-treated with progesterone plus the antiprogestin, with the exception of one gene (CDH10)): completely annulled
antagonist activity ([1]; cells expressing WT or KR PR): effective antagonist
reversal of the effects of progesterone exposure ([1]; cells expressing activated PR (KR), onapristone in the presence of progesterone): can effectively reverse
inhibition of expression of PR target genes ([1]; cells that express hyperactive PR (phosphorylated and deSUMOylated; KR)): can successfully inhibit
reversal of transcriptional differences induced by progesterone ([1]; cells with a WT PR receptor, progesterone plus onapristone): almost completely reverse

COc1cccc2c1C(=O)c1c(O)c3c(c(O)c1C2=O)C[C@@](O)(C(=O)CO)C[C@@H]3O[C@H]1C[C@H](N)[C@H](O)[C@H](C)O1 [Doxorubicin, doxorubicin]
WT and KR PR protein expression (PR protein expression): reduced

EGF: epidermal growth factor (Sigma) (NSDSECPLSHDGYCLHDGVCMYIEALDKYACNCVVGYIGERCQYRDLKWWELR; Epidermal growth factor; UniProt P01133 971-1023, looked up)
MAP1A and RGS2 mRNA expression ([2]; EGF alone (100 ng/ml) over a 2-day time course): insensitive
progestin stimulated mRNA expression of MAP1A and RGS2 ([2]; EGF pre-treatment (100 ng/ml) followed by R5020 10^−8 M): significantly augmented

N#CC(=C(/N)Sc1ccccc1N)/C(C#N)=C(\N)Sc1ccccc1N [U0126]
R5020-induced ACOT6 expression (control gene) ([3]; MEK kinase inhibition, U0126 5 uM): completely insensitive
R5020-induced CHN2 and RGS2 expression [3, 7]: partially, but significantly, diminished
R5020-induced PR Ser294 phosphorylation [4, 7]: blocked

CCC(=O)[C@@]1(C)CC[C@H]2[C@@H]3CCC4=CC(=O)CCC4=C3CC[C@@]21C [R5020]
ACOT6 expression ([3]; R5020 10^−8 M, 6 h): induced
upregulation of CHN2 mRNA ([3]; R5020 10^−8 M, 6 h): 17 fold
upregulation of RGS2 mRNA ([3]; R5020 10^−8 M, 6 h): 26 fold
RGS2 expression response to R5020 ([5]; T47D cells expressing KR PR): ~20 fold
RGS2 expression response to R5020 ([5]; T47D cells expressing WT PR): ~2 fold
cell growth [6]: grew faster
PR-B Ser294 phosphorylation ([4]; R5020 treatment): elevated

C/C=C\[C@]1(O)CC[C@H]2[C@@H]3CCC4=CC(=O)CCC4=C3[C@@H](c3ccc(N(C)C)cc3)C[C@@]21C [aglepristone, (8S,11R,13S,14S,17R)-11-(4-dimethylaminophenyl)-17-hydroxy-13-methyl-17-[(Z)-prop-1-enyl]-1,2,6,7,8,11,12,14,15,16-decahydrocyclopenta[a]phenanthren-3-one]
expression of progesterone-regulated PR target genes ([1]; 6 h): caused many PR target genes to become upregulated
agonistic activity ([1]; cells expressing hyperactive / SUMO-deficient PR (KR)): substantial agonistic activity; also recorded: agonistic properties

CC(=O)[C@H]1CC[C@H]2[C@@H]3CCC4=CC(=O)CC[C@]4(C)[C@H]3CC[C@]12C [progesterone]
gene expression after progesterone (P4) treatment ([1]; both WT and KR cells, progesterone 10^−8 M, 6 h): significantly upregulated
